Results on 6 molecules are retold here after patent EP0808832B1, “Fluorinated vitamin D3 analogs” (F. HOFFMANN-LA ROCHE AG, priority 1996, dated 1997).

SMILES strings stand for the structures. Where “and” joins values, the source holds several entries; their conditions need not be identical. Identical values can stand only once. Like-named read-outs stand apart in the source and are kept apart here.

The subject of data set [1] is rats are ovariectomized (Ovx). The class given is in vivo, rat. Conditions: for Whole Femur BMD: 3 to 6 weeks post-ovariectomy, right femur; for Urine Calcium/Creatinine 6th wk): 0.20 µg/kg once a day by mouth. The text has this: Three month old rats are ovariectomized (Ovx) and administered either 1,25-dihydroxy vitamin D3 (vit. D in Table) or one of the compounds of the present invention once a day by mouth starting at 3 weeks post-ovariectomy and continuing until final sacrifice at 6 weeks post-ovariectomy. Control groups, both sham (rats that were not ovariectomized) and Ovx, received vehicle only. Blood and urine samples were collected twice, at 4 weeks post-ovariectomy and again at the 6 week mark and the amount of serum and urine calcium was determined. The final femoral calcium determined upon sacrifice 6 weeks post- ovariectomy.
The bone mineral density (BMD) of the right femur was determined by using a High Resolution Software Package on a QDR-1000W Bone Densitometer™ (Hologic, Walthan, MA). The animals were scanned by placing them on a scanning block in a supine position such that the right leg was perpendicular to the main body and the tibia was perpendicular to the femur.
The increase in the bone mineral density and the amount of calcium in the urine and the serum for some of the compounds of this invention in this assay are given in the table below: […]

The test system of data set [2] is women with postmenopausal osteoporosis. The following applies: 0.25 microgram twice daily, after 3 years, mild to moderate disease, compared with elemental calcium 1000 mg/day; cited from earlier work.

`C=C1/C(=C\C=C2/CCC[C@]3(C)C([C@@H](C)C/C=C/C(C)(O)C(F)(F)F)=CC[C@@H]23)C[C@@H](O)C[C@@H]1F` (stereo partly drawn) [Cpd. 57, 1-α-Fluoro-25(RS)-hydroxy-16,23E-diene-26-trifluoro-20-epi-cholecalciferol] registered a Whole Femur BMD in data set [1] (1.50 µg/kg once a day by mouth) of 0.248 g/cm^2.
`C=C1/C(=C\C=C2/CCC[C@]3(C)[C@@H](C4(CC#CC(C)(C)O)CC4)CC[C@@H]23)C[C@@H](O)C[C@@H]1F` [Cpd. 58, 1-α-Fluoro-25-hydroxy-23-yne-20,21,28-cyclopropylcholecalciferol] had a Whole Femur BMD in data set [1] (5.00 µg/kg once a day by mouth) of 0.236 g/cm^2.
Consider `C=C1/C(=C\C=C2/CCC[C@]3(C)C([C@@H](C)CC#CC4(O)CCCC4)=CC[C@@H]23)C[C@@H](O)C[C@@H]1F` [Cpd. 59, 1-α-Fluoro-25-hydroxy-16-ene-23-yne-25,26,27-cyclopentyl-20-epi-cholecalciferol], for which, in data set [1] (2.00 µg/kg once a day by mouth), the Whole Femur BMD was found to be 0.233 g/cm^2.
With `C=C1/C(=C\C=C2/CCC[C@]3(C)[C@@H](C4(C/C=C/C(O)(C(F)(F)F)C(F)(F)F)CC4)CC[C@@H]23)C[C@@H](O)C[C@@H]1F` [Cpd. 60, 1-α-Fluoro-25-hydroxy-23E-ene-26,27-hexafluoro-20,21,28-cyclopropyl-cholecalciferol], the Whole Femur BMD in data set [1] (0.10 µg/kg once a day by mouth) is 0.242 g/cm^2.
`C=C1/C(=C\C=C2/CCC[C@]3(C)[C@@H](C4(CC#CC(O)(C(F)(F)F)C(F)(F)F)CC4)CC[C@@H]23)C[C@@H](O)C[C@@H]1F` [Cpd. 61, 1-α-Fluoro-25-hydroxy-23-yne-26,27-hexafluoro-20,21,28-cyclopropyl-cholecalciferol] returned a Whole Femur BMD in data set [1] (0.50 µg/kg once a day by mouth) of 0.243 g/cm^2.
With `C=C1/C(=C\C=C2/CCC[C@]3(C)[C@@H]([C@H](C)CCCC(C)(C)O)CC[C@@H]23)C[C@@H](O)C[C@@H]1O` [Vit D, 1,25-dihydroxy vitamin D3], in data set [2], the “lower rate of new vertebral fractures” value is given as 3 fold. Also, the “Urine Calcium/Creatinine 6th wk)” value is 1.35 mg/dL and 1.44 mg/dL in data set [1]; 0.76 mg/dL and 1.44 mg/dL and 1.48 mg/dL in data set [1] (listed as Vit. D).
